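Five concentrations, 48 hours, 96-well plates. GI50 marks 50% less growth. TGI: concentration producing complete growth inhibition.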
What was measured:
Experiment in all cases: inhibition of tumour cell growth, NCI panel, 48 h
HCC-2998 colon = system: HCC-2998 colon
MOLT-4 leukemia = system: MOLT-4 leukemia
CCRF-CEM leukemia = system: CCRF-CEM leukemia
SF-268 CNS = system: SF-268 CNS
OVCAR-5 ovarian = system: OVCAR-5 ovarian
K-562 leukemia = system: K-562 leukemia
CAKI-1 renal = system: CAKI-1 renal
TK-10 renal = system: TK-10 renal
SN12C renal = system: SN12C renal
OVCAR-8 ovarian = system: OVCAR-8 ovarian

Row | SMILES | GI50 (HCC-2998 colon) | TGI (HCC-2998 colon) | GI50 (MOLT-4 leukemia) | TGI (MOLT-4 leukemia) | GI50 (CCRF-CEM leukemia) | TGI (CCRF-CEM leukemia) | GI50 (SF-268 CNS) | TGI (SF-268 CNS) | GI50 (OVCAR-5 ovarian) | TGI (OVCAR-5 ovarian) | GI50 (K-562 leukemia) | TGI (K-562 leukemia) | GI50 (CAKI-1 renal) | TGI (CAKI-1 renal) | GI50 (TK-10 renal) | TGI (TK-10 renal) | GI50 (SN12C renal) | TGI (SN12C renal) | GI50 (OVCAR-8 ovarian) | TGI (OVCAR-8 ovarian)
1 | Cn1cc(C2=C(c3cccc([N+](=O)[O-])c3)C(=O)NC2=O)c2ccccc21 | 14.5 µM | > 25 µM | 7.18 µM | > 22.8 µM | 7.19 µM | > 25 µM | 11.8 µM | > 25 µM | > 25 µM | > 25 µM | 4.85 µM | > 25 µM | 5.5 µM | > 25 µM | 12.1 µM | > 25 µM | 9.61 µM | > 25 µM | 6.81 µM | > 22.4 µM
2 | CN1CCC(C(=O)Nc2n[nH]c3nnc(-c4ccccc4)cc23)CC1 | > 25 µM | > 25 µM | > 25 µM | > 25 µM | > 25 µM | > 25 µM | > 25 µM | > 25 µM | > 25 µM | > 25 µM | > 25 µM | > 25 µM | > 25 µM | > 25 µM | > 25 µM | > 25 µM | > 25 µM | > 25 µM | > 25 µM | > 25 µM
3 | Clc1ccc(/C=C/c2csnn2)cc1 |  | > 100 µM |  | > 100 µM |  | > 100 µM |  | > 100 µM |  | > 100 µM |  | > 100 µM |  | > 100 µM |  | > 100 µM |  | > 100 µM |  | > 100 µM
4 | COc1ccc(-c2nc3sccn3c2/C=C/C(=O)c2cc(OC)c(OC)c(OC)c2)cc1 | 3.03 µM | 14.4 µM | 2.24 µM | 23.7 µM | 3.4 µM | 53.1 µM | 2.76 µM | > 100 µM | 3.68 µM | > 23.9 µM | 2.43 µM | > 23.9 µM | 2.02 µM | > 100 µM | 5 µM | > 100 µM | 3 µM | > 100 µM | 3.03 µM | > 21.8 µM
5 | CCCC/C=C1/CCC(CN(C)C)C1=O (stereo not drawn) |  | 3.07 µM | 1.21 µM | 4.15 µM | 0.424 µM | 1.76 µM |  | 5.91 µM | 0.0971 µM | 12.3 µM |  | 3.79 µM |  | 1.78 µM |  | 2.51 µM |  | 3.63 µM |  | 4.08 µM
6 | O=C(/C=N/O)Nc1cccc(Cl)c1I |  | > 100 µM |  | > 100 µM |  | > 100 µM |  | > 100 µM |  | > 100 µM |  | > 100 µM |  | > 100 µM |  | > 100 µM |  | > 100 µM |  | > 100 µM
7 | CNC(=O)N(CCCCC(NC(C)=O)C(=O)NCc1ccccc1)Cc1ccccc1 (stereo not drawn) |  | > 100 µM |  | > 100 µM |  | > 100 µM |  | > 100 µM |  | > 100 µM |  | > 100 µM |  | > 100 µM |  | > 100 µM |  | > 100 µM |  | > 100 µM
8 | O=C(NCCNC1=CC(=O)c2nc3ccccc3c3ccnc1c23)c1cnccn1 | 27.6 µM | > 100 µM | 35.7 µM | > 100 µM | 1.94 µM | > 100 µM | 31 µM | > 100 µM | > 100 µM | > 100 µM | 33.6 µM | > 100 µM | 15.8 µM | 50.9 µM | 10.3 µM | 37.2 µM | 49.5 µM | > 100 µM | 24.3 µM | > 100 µM
9 | CC[C@]1(O)C[C@@H]2CN(CCc3c([nH]c4ccccc34)[C@@](C(=O)OC)(c3cc4c(cc3OC)N(C)[C@H]3[C@@](O)(C(=O)OC)[C@H](OC(=O)CCCBr)[C@]5(CC)C=CCN6CC[C@]43[C@@H]65)C2)C1 | 0.0132 µM | 1.31 µM | 0.026 µM | > 100 µM | 0.0232 µM | > 100 µM | 0.197 µM | 17.5 µM | < 0.023 µM | > 100 µM | < 0.01 µM | > 100 µM | < 0.0206 µM | 2.12 µM | 2 µM | > 100 µM | 0.046 µM | > 100 µM | < 0.0209 µM | > 100 µM
10 | Cc1ccccc1NC(=O)C(=O)CC(=O)c1sc(-n2nc(-c3ccccc3)cc2-c2ccccc2)nc1C |  | > 100 µM |  | > 100 µM |  | > 100 µM |  | > 100 µM |  | > 100 µM |  | > 100 µM |  | > 100 µM |  | > 100 µM |  | > 100 µM |  | > 100 µM
11 | CN(Cc1cnc2nc(N)nc(N)c2n1)c1c(Cl)cc(C(=O)NC(CCC(=O)O)C(=O)O)cc1Br (stereo not drawn) | < 0.01 µM | 0.153 µM | < 0.01 µM | > 100 µM | < 0.01 µM | > 100 µM | < 0.01 µM | > 100 µM | 0.127 µM | > 100 µM | < 0.01 µM | > 100 µM | < 0.01 µM | 0.0671 µM | < 0.01 µM | > 100 µM | < 0.01 µM | > 100 µM | < 0.01 µM | > 100 µM

Reference: PubChem BioAssay (NCI)
